Measured values reported in patent US11814376B2, “Hepatitis b core protein modulators” (Assembly Biosciences, Inc., priority 2015, dated 2023).

What was measured:
[1] = test system: HBV viral load in AD38 cells; experiment: Viral load production in AD38 cells, quantitative PCR of the core sequence in supernatant; assay type: cell-based; details: Hepatitis B virus, 144 h, 10 μM compound, 6 days at 37° C., supernatant qPCR, relative to DMSO control; read-out: AD38 Viral Load (%) (VL with cmpd/VL in DMSO control) at 10 μM
[2] = test system: AD38 cells; experiment: Viability of AD38 cells (Promega CellTiter-Glo); assay type: cell-based; details: 10 μM compound, 6 days, CellTiter-Glo luminescence normalized to DMSO control (100%)
Method in brief: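 AD38 cells were seeded at 50,000/well on collagen-coated plates and treated with compound added as a 10× solution in 10% DMSO for 6 days at 37° C. Viability was measured by CellTiter-Glo luminescence in tetracycline-free medium with 2% FBS and 1% DMSO, and expressed as percent of DMSO control.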

SMILES	activity at 10 µM [1]	AD38 Viability Normalized Result (cmpd/DMSO %) at 10 μM [2]
CC(C)(C)NCCCSc1ccc(-c2ncc(CNC(=O)c3ccc4c(c3)NC(=O)c3ccccc3S4(=O)=O)s2)cc1.O=C(O)C(F)(F)F [compound 11064, N-((2-(4-((3-(tert-butylamino)propyl)thio)phenyl)thiazol-5-yl)methyl)-11-oxo-10, 11-dihydrodibenzo [b, f] [1, 4] thiazepine-8-carboxamide 5,5-dioxide TFA salt]	4.1%	85%
N#Cc1ccc(-c2ncc(CNC(=O)c3ccc4c(c3)NC(=O)c3ccccc3O4)s2)cc1 [1770-A, N-((2-(4-cyanophenyl)thiazol-5-yl)methyl)-11-oxo-10, 11-dihydrodibenzo [b, f] [1, 4] oxazepine-8-carboxamide]	29.8%	100%
O=C(O)COc1ncc(CNC(=O)c2ccc3c(c2)NC(=O)c2ccccc2S3(=O)=O)s1 [compound 1580, 2-((5-((5,5-dioxido-11-oxo-10, 11-dihydrodibenzo [b, f] [1, 4]thiazepine-8-carboxamido)methyl)thiazol-2-yl)oxy) acetic acid]	104%	102%
O=C(NCc1cnc(-c2ccc3[nH]ccc3c2)s1)c1ccc2c(c1)NC(=O)c1ccccc1O2 [compound 1696]	0.8%	109%
O=C(O)c1ccc(-c2ncc(CNC(=O)c3ccc4c(c3)NC(=O)c3ccccc3S4(=O)=O)s2)cc1 [compound 1585, 4-(5-((5,5-dioxido-11-oxo-10, 11-dihydrodibenzo [b, f] [1, 4]thiazepine-8-carboxamido)methyl)thiazol-2-yl) benzoic acid]	64.1%	96%
COc1ccnc(-c2ncc(CNC(=O)c3ccc4c(c3)NC(=O)c3ccccc3S4(=O)=O)s2)c1 [1880-A, N-((2-(4-methoxypyridin-2-yl)thiazol-5-yl)methyl)-11-oxo-10, 11-dihydrodibenzo [b, f] [1, 4] thiazepine-8-carboxamide 5,5-dioxide]	0.7%	124%
CC(NC(=O)c1ccc2c(c1)NC(=O)c1ccccc1S2)c1cncs1 (racemic) [compound 1432, 11-oxo-N-(1-(thiazol-5-yl)ethyl)-10, 11-dihydrodibenzo [b, f] [1, 4] thiazepine-8-carboxamide]	21.8%	101%
N#Cc1ccc(-c2ncc(CNC(=O)c3ccc4c(c3Cl)NC(=O)c3ccccc3S4(=O)=O)s2)c(F)c1 [compound 11083]	0.8%	62%
Cc1c(C(=O)NCc2cnc(-c3ccc(OCCCN(C)C)cc3)s2)ccc2c1NC(=O)c1ccccc1S2 [C20-01]	1.5%	98%
O=C(NCc1cnc(-c2ccc(OC3CCNCC3)cc2)s1)c1ccc2c(c1)NC(=O)c1ccccc1S2(=O)=O [compound 11026, 11-oxo-N-((2-(4-(piperidin-4-yloxy)phenyl)thiazol-5-yl)methyl)-10, 11-dihydrodibenzo [b, f] [1, 4] thiazepine-8-carboxamide 5,5-dioxide]	5.5%	100%
Cl.O=C(NCc1cnc(-c2ccc(OC[C@@H]3CCCN3)cc2)s1)c1ccc2c(c1)NC(=O)c1ccccc1S2(=O)=O [compound 11029, (S)-11-oxo-N-((2-(4-(pyrrolidin-2-ylmethoxy)phenyl)thiazol-5-yl)methyl)-10, 11-dihydrodibenzo [b, f] [1, 4] thiazepine-8-carboxamide 5,5-dioxide hydrochloride]	5.3%	105%
CN(C)CCCOc1ccc(-c2ncc(CNC(=O)c3ccc4c(c3)NC(=O)c3ccccc3S4(=O)=O)s2)cc1 [compound 1679]	1.1%	94%
O=C(NCc1cnc(-c2cscn2)s1)c1ccc2c(c1)NC(=O)c1ccccc1S2(=O)=O [compound 11049]	0.8%	89%
O=C(NCc1cnc(C(F)(F)F)s1)c1ccc2c(c1)NC(=O)c1ccccc1O2 [compound 1629]	3.2%	107%
O=C(NCc1cnc(C(F)(F)F)s1)c1ccc2c(c1)NC(=O)c1ccccc1S2 [compound 1421]	1.3%	104%
O=C(NCc1cnc(-c2ccc(CCCCN3CCCCC3)cc2)s1)c1ccc2c(c1)NC(=O)c1ccccc1S2(=O)=O [compound 11055]	4%	94%
O=C(NCc1cnc(-c2nccs2)s1)c1ccc2c(c1)NC(=O)c1ccccc1S2(=O)=O [compound 1882]	1%	103%
CN(C)CCOc1ccc(-c2ncc(CNC(=O)c3ccc4c(c3)NC(=O)c3ccccc3S4(=O)=O)s2)cc1 [compound 1584]	1.4%	101%

SMILES	activity at 10 µM [1]	AD38 Viability Normalized Result (cmpd/DMSO %) at 10 μM [2]
CN(C)C1CN(Cc2ccc(-c3ncc(CNC(=O)c4ccc5c(c4)NC(=O)c4ccccc4S5(=O)=O)s3)cc2)C1 [compound 11158]	6.4%	100%
Cc1c(C(=O)NCc2cnc(-n3cc(F)cn3)s2)ccc2c1NC(=O)c1ccccc1S2(=O)=O [compound 11148]	0.3%	98%
CN(C)CCOc1ccc(-c2ncc(CNC(=O)c3ccc4c(c3)NC(=O)c3ccccc3O4)s2)cc1 [compound 1621]	25.9%	81%
CCN1c2ccc(C(=O)NCc3cnc(-c4ccc(O)cc4)s3)cc2NC(=O)c2ccccc21 [compound 1751]	2.8%	18%
O=C1CCCCN(c2ncc(CNC(=O)c3ccc4c(c3)NC(=O)c3ccccc3S4(=O)=O)s2)C1 [compound 1909, 11-oxo-N-((2-(3-oxoazepan-1-yl)thiazol-5-yl)methyl)-10, 11-dihydrodibenzo [b, f] [1, 4] thiazepine-8-carboxamide 5,5-dioxide]	1.3%	95%
Cl.NCc1cnc(-c2ncc(CNC(=O)c3ccc4c(c3)NC(=O)c3ccccc3S4)s2)s1 [compound 1735, N-((5′-(aminomethyl)-[2, 2′-bithiazol]-5-yl)methyl)-11-oxo-10, 11-dihydrodibenzo [b, f] [1, 4] thiazepine-8-carboxamide hydrochloride]	3.1%	92%
O=C(NCc1cnc(-c2ncco2)s1)c1ccc2c(c1)NC(=O)c1ccccc1S2(=O)=O [compound 1958]	1.5%	91%
O=C(NCc1cnc(-c2ccc(O)cc2F)s1)c1ccc2c(c1)NC(=O)c1ccccc1O2 [compound 1704]	47.6%	96%
CC(C)(C)c1ncc(CNC(=O)c2ccc3c(c2)NC(=O)c2ccccc2S3)s1 [compound 1555]	1%	89%
CC(C)(C)OC(=O)N1CCC[C@@H]1COc1ccc(-c2ncc(CNC(=O)c3ccc4c(c3)NC(=O)c3ccccc3S4(=O)=O)s2)cc1 [11104-A, tert-butyl (R)-2-((4-(5-((5,5-dioxido-11-oxo-10, 11-dihydrodibenzo [b, f] [1, 4]thiazepine-8-carboxamido)methyl)thiazol-2-yl)phenoxy)methyl) pyrrolidine-1-carboxylate]	0.9%	74%
Cc1c(C(=O)NCc2cnc(-c3ccc(O)cc3)s2)ccc2c1NC(=O)c1ccccc1S2(=O)=O [compound 1768]	0.4%	94%
COc1ccc(-c2ncc(CNC(=O)c3ccc4c(c3)NC(=O)c3ccccc3S4(=O)=O)s2)cn1 [compound 1666, N-((2-(6-methoxypyridin-3-yl)thiazol-5-yl)methyl)-11-oxo-10, 11-dihydrodibenzo [b, f] [1, 4] thiazepine-8-carboxamide 5,5-dioxide]	0.9%	98%
Cc1c(C(=O)NCc2cnc(-c3ccc(C#N)cc3F)s2)ccc2c1NC(=O)c1ccccc1S2(=O)=O [compound 1971]	7%	87%
O=C(NCc1cnc(-c2ccc(O)cc2)s1)c1ccc2c(c1)NC(=O)c1ccccc1O2 [compound 1618]	1.9%	100%
Cc1c(C(=O)NCc2cnc(-n3cccn3)s2)ccc2c1NC(=O)c1ccccc1S2 [C20-02]	0.5%	95%
O=C(NCc1cnc(-c2ccc(OCCCN3CCCCC3)cc2)s1)c1ccc2c(c1)NC(=O)c1ccccc1O2 [compound 11160, 11-oxo-N-((2-(4-(3-(piperidin-1-yl)propoxy)phenyl)thiazol-5-yl)methyl)-10, 11-dihydrodibenzo [b, f] [1, 4] oxazepine-8-carboxamide]	17.7%	104%
CCc1cc2c(cc1C(=O)NCc1cnc(-c3ccc(C#N)cc3F)s1)NC(=O)c1ccccc1S2(=O)=O [compound 11042]	0.8%	109%
Cc1c(C(=O)NCc2cnc(-c3ccc(OCCCN(C)C)cc3)s2)ccc2c1NC(=O)c1ccccc1O2 [C44-01]	2.6%	97%
